Where “and” joins values, the source holds several entries; their conditions need not be identical. Equal entries are not always repeated. Inconclusive results and toxic doses are left out. No stated cut-off is given here; in the data, active means T/C of 150% or more; inactive means T/C below 125%.
Tested on: L1210 leukemia ip in BDF1 mice, survival T/C
Assay: NCI In Vivo Anticancer Drug Screen. Data for tumor model L1210 Leukemia (intraperitoneal) in B6D2F1 (BDF1) mice
Settings: endpoint: mean survival time, higher = longer survival
In short: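 Survival endpoint. Drug-treated group vs vehicle group, expressed as T divided by C. Tumor passaged by transplantation.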

[1] = dose: 50.0 mg/kg/injection, schedule: Q01DX001 (ip), vehicle: saline
[2] = dose: 100.0 mg/kg/injection, schedule: Q04DX003 (ip), vehicle: saline with Tween-80
[3] = dose: 200.0 mg/kg/injection, schedule: Q04DX003 (ip), vehicle: saline with Tween-80
[4] = dose: 400.0 mg/kg/injection, schedule: Q04DX003 (ip), vehicle: saline with Tween-80
[5] = dose: 100.0 mg/kg/injection, schedule: Q01DX009 (ip), vehicle: saline with Tween-80
[6] = dose: 200.0 mg/kg/injection, schedule: Q01DX009 (ip), vehicle: saline with Tween-80
[7] = dose: 100.0 mg/kg/injection, schedule: Q01DX009 (ip), vehicle: saline
[8] = dose: 100.0 mg/kg/injection, schedule: Q04DX003 (ip), vehicle: saline
[9] = dose: 100.0 mg/kg/injection, schedule: Q01DX009 (ip), vehicle: Klucel (hydroxypropylcellulose) (HPC)
[10] = dose: 200.0 mg/kg/injection, schedule: Q01DX009 (ip), vehicle: Klucel (hydroxypropylcellulose) (HPC)
[11] = dose: 400.0 mg/kg/injection, schedule: Q01DX009 (ip), vehicle: Klucel (hydroxypropylcellulose) (HPC)
[12] = dose: 100.0 mg/kg/injection, schedule: Q01DX001 (ip), vehicle: carboxymethylcellulose (CMC)
[13] = dose: 400.0 mg/kg/injection, schedule: Q01DX001 (ip), vehicle: carboxymethylcellulose (CMC)
[14] = dose: 100.0 mg/kg/injection, schedule: Q01DX001 (ip), vehicle: saline
[15] = dose: 100.0 mg/kg/injection, schedule: Q04DX003 (ip), vehicle: Klucel (hydroxypropylcellulose) (HPC)
[16] = dose: 200.0 mg/kg/injection, schedule: Q04DX003 (ip), vehicle: Klucel (hydroxypropylcellulose) (HPC)
[17] = dose: 400.0 mg/kg/injection, schedule: Q04DX003 (ip), vehicle: Klucel (hydroxypropylcellulose) (HPC)

Measured: T/C

O=C1C(=O)c2ccccc2C(O)=C1CC=C(Cl)Cl
inactive: dose: 6.2 mg/kg/injection, schedule: Q01DX009 (ip), vehicle: water 94 % of control | dose: 6.25 mg/kg/injection, schedule: Q01DX001 (ip), vehicle: saline 97 % of control | dose: 12.5 mg/kg/injection, schedule: Q01DX001 (ip), vehicle: saline 106 % of control | dose: 12.5 mg/kg/injection, schedule: Q01DX001 (oral), vehicle: saline 97 % of control | dose: 12.5 mg/kg/injection, schedule: Q01DX009 (ip), vehicle: water 100 % of control and 96 % of control | dose: 12.5 mg/kg/injection, schedule: Q03HX024 (ip), vehicle: water 89 % of control | dose: 12.5 mg/kg/injection, schedule: Q04DX003 (ip), vehicle: water 94 % of control | dose: 12.5 mg/kg/injection, schedule: Q08DX002 (ip), vehicle: water 98 % of control | dose: 25.0 mg/kg/injection, schedule: Q01DX001 (ip), vehicle: saline 104 % of control | dose: 25.0 mg/kg/injection, schedule: Q01DX001 (oral), vehicle: saline 104 % of control | dose: 25.0 mg/kg/injection, schedule: Q01DX009 (ip), vehicle: water 102 % of control and 96 % of control | dose: 25.0 mg/kg/injection, schedule: Q03HX016 (ip), vehicle: water 89 % of control | dose: 25.0 mg/kg/injection, schedule: Q03HX024 (ip), vehicle: water 90 % of control | dose: 25.0 mg/kg/injection, schedule: Q04DX003 (ip), vehicle: water 95 % of control | dose: 25.0 mg/kg/injection, schedule: Q08DX002 (ip), vehicle: water 95 % of control | dose: 25.0 mg/kg/injection, schedule: Q## X008 (ip), vehicle: water 91 % of control | [1] 106 % of control | dose: 50.0 mg/kg/injection, schedule: Q01DX001 (ip), vehicle: water 102 % of control | dose: 50.0 mg/kg/injection, schedule: Q01DX001 (oral), vehicle: saline 98 % of control | dose: 50.0 mg/kg/injection, schedule: Q01DX009 (ip), vehicle: water 113 % of control and 100 % of control | dose: 50.0 mg/kg/injection, schedule: Q03HX016 (ip), vehicle: water 91 % of control | dose: 50.0 mg/kg/injection, schedule: Q03HX024 (ip), vehicle: water 96 % of control | dose: 50.0 mg/kg/injection, schedule: Q04DX003 (ip), vehicle: water 97 % of control | dose: 50.0 mg/kg/injection, schedule: Q08DX002 (ip), vehicle: water 92 % of control | dose: 50.0 mg/kg/injection, schedule: Q## X008 (ip), vehicle: water 88 % of control | dose: 75.0 mg/kg/injection, schedule: Q03HX024 (ip), vehicle: water 90 % of control | dose: 75.0 mg/kg/injection, schedule: Q04DX003 (ip), vehicle: water 95 % of control | dose: 100.0 mg/kg/injection, schedule: Q01DX001 (oral), vehicle: saline 97 % of control and 106 % of control | dose: 100.0 mg/kg/injection, schedule: Q03HX016 (ip), vehicle: water 88 % of control | dose: 100.0 mg/kg/injection, schedule: Q03HX024 (ip), vehicle: water 92 % of control | dose: 100.0 mg/kg/injection, schedule: Q08DX002 (ip), vehicle: water 92 % of control | dose: 100.0 mg/kg/injection, schedule: Q## X008 (ip), vehicle: water 92 % of control | dose: 200.0 mg/kg/injection, schedule: Q03HX016 (ip), vehicle: water 90 % of control | dose: 200.0 mg/kg/injection, schedule: Q## X008 (ip), vehicle: water 94 % of control

Cc1cnc(Cl)c(Br)c1
inactive: [2] 100 % of control | [3] 102 % of control | [4] 98 % of control

c1ccc(CC(CNCC2C(c3ccccc3)C2c2ccccc2)c2ccccc2)cc1 (configuration not stated)
inactive: dose: 12.5 mg/kg/injection, schedule: Q04DX002 (ip), vehicle: saline with Tween-80 96 % of control | dose: 25.0 mg/kg/injection, schedule: Q04DX002 (ip), vehicle: saline with Tween-80 93 % of control | dose: 50.0 mg/kg/injection, schedule: Q04DX002 (ip), vehicle: saline with Tween-80 90 % of control

O=C(Nc1ccc2c(c1)OCO2)O/N=C\c1ccccc1
inactive: [5] 89 % of control | [2] 103 % of control | [6] 91 % of control | [3] 97 % of control | dose: 400.0 mg/kg/injection, schedule: Q01DX009 (ip), vehicle: saline with Tween-80 91 % of control | [4] 89 % of control

O=C(O)CCC(NC(=O)OCc1ccccc1)C(=O)NC(Cc1ccccc1)C(=O)O (configuration not stated)
inactive: [2] 102 % of control | [3] 101 % of control | [4] 101 % of control

CC(=O)Nc1ccc(OC(=O)Nc2ccc([N+](=O)[O-])cc2Cl)cc1
inactive: [7] 102 % of control | [8] 103 % of control | dose: 200.0 mg/kg/injection, schedule: Q01DX009 (ip), vehicle: saline 104 % of control | dose: 200.0 mg/kg/injection, schedule: Q04DX003 (ip), vehicle: saline 100 % of control | dose: 400.0 mg/kg/injection, schedule: Q01DX009 (ip), vehicle: saline 104 % of control | dose: 400.0 mg/kg/injection, schedule: Q04DX003 (ip), vehicle: saline 103 % of control

COc1ccc([N+](=O)[O-])cc1NC(=O)N/N=C(\C)C(C)(C)C
inactive: [9] 94 % of control | [10] 102 % of control | [11] 86 % of control

CSCCC1NC(=O)C(C(C)=Nc2ccccc2)=C1O (configuration not stated)
inactive: dose: 50.0 mg/kg/injection, schedule: Q01DX001 (ip), vehicle: carboxymethylcellulose (CMC) 101 % of control | [12] 109 % of control | dose: 200.0 mg/kg/injection, schedule: Q01DX001 (ip), vehicle: carboxymethylcellulose (CMC) 104 % of control | [13] 104 % of control

C/C(=N\[N+](C)(C)C)c1cccc(C)n1
inactive: dose: 25.0 mg/kg/injection, schedule: Q01DX009 (ip), vehicle: saline 97 % of control | dose: 25.0 mg/kg/injection, schedule: Q04DX003 (ip), vehicle: saline 107 % of control | dose: 50.0 mg/kg/injection, schedule: Q01DX009 (ip), vehicle: saline 105 % of control | dose: 50.0 mg/kg/injection, schedule: Q04DX003 (ip), vehicle: saline 102 % of control | [14] 103 % of control | [7] 100 % of control | [8] 100 % of control

Cc1ccc(-c2nc(-c3nccc4ccccc34)oc2-c2ccccc2)cc1
inactive: [9] 103 % of control | [10] 95 % of control | [11] 95 % of control

COc1ccc(OC)c(C2N(Cc3ccc(N(C)C)cc3)CCCN2Cc2ccc(N(C)C)cc2)c1
inactive: dose: 50.0 mg/kg/injection, schedule: Q01DX009 (ip), vehicle: saline with Tween-80 93 % of control | [5] 93 % of control | [6] 90 % of control

O[O][Ge]([c]1ccccc1)([c]1ccccc1)[c]1ccccc1
inactive: [15] 88 % of control | [16] 91 % of control | [17] 88 % of control

CC1c2ccccc2OC(=O)C1C(=O)O (configuration not stated)
inactive: dose: 88.8 mg/kg/injection, schedule: Q01DX001 (ip), vehicle: carboxymethylcellulose (CMC) 94 % of control | [12] 94 % of control | dose: 133.4 mg/kg/injection, schedule: Q01DX001 (ip), vehicle: carboxymethylcellulose (CMC) 94 % of control | dose: 300.0 mg/kg/injection, schedule: Q01DX001 (ip), vehicle: carboxymethylcellulose (CMC) 100 % of control | [13] 94 % of control

COC(=O)c1ccc(SC(=O)N(C)C)cc1
inactive: [15] 91 % of control | [16] 96 % of control | [17] 91 % of control

CC1(C)CC(C(=O)c2ccccc2)C(=O)c2ccccc21 (configuration not stated)
inactive: dose: 100.0 mg/kg/injection, schedule: Q01DX001 (ip), vehicle: Klucel (hydroxypropylcellulose) (HPC) 105 % of control | dose: 200.0 mg/kg/injection, schedule: Q01DX001 (ip), vehicle: Klucel (hydroxypropylcellulose) (HPC) 97 % of control | dose: 400.0 mg/kg/injection, schedule: Q01DX001 (ip), vehicle: Klucel (hydroxypropylcellulose) (HPC) 86 % of control

C[N+](C)(C)c1ncnc2c1ncn2C1CC(O)C(CO)O1 (configuration not stated)
inactive: [1] 104 % of control | [14] 96 % of control | dose: 200.0 mg/kg/injection, schedule: Q01DX001 (ip), vehicle: saline 102 % of control

Reference: PubChem BioAssay AID248 (DTP/NCI, 2004)
